Measurements: US20240182945A1, “PRODUCTS FOR REGULATION OF EUKARYOTIC AND MICROBIAL CELLS GROWTH” (priority 2021, published 2024)

Columns and labels:
[1] = system: Gram negative rods; experiment: Supplements added to culture media to control bacterial diversity (microscopy, 18 h); type: cell-based; design: key: “+++” marks the diversity of certain bacterial type in control; “+++++” indicates an increased diversity of bacterial type; conditions: 18 h of cultivation
Source text: (§1) We next studied, could we regulate bacterial diversity grown from the bio samples with different compounds including transcriptase inhibitors, protease inhibitors, recombinase/integrase inhibitors, nucleases.

[2] = system: Gram positive non-sporeforming bacteria; experiment: as above; type: cell-based; design: key: “+++” marks the diversity of certain bacterial type in control; “+++++” indicates an increased diversity of bacterial type; conditions: 18 h of cultivation
Source text: as §1

[3] = system: Gram positive sporeforming bacteria; experiment: as above; type: cell-based; design: key: “+++” marks the diversity of certain bacterial type in control; “+++++” indicates an increased diversity of bacterial type; conditions: 18 h of cultivation
Source text: as §1

[4] = system: PP; experiment: Neutropenic mouse pneumonia infected with biosamples, tobramycin treatment, decrease of PP count by 3log10 over 48 hours; type: in vivo, C57BL/6 mice; conditions: efficacy = decrease of PP count by 3log10 over 48 hours
Procedure: Next, using the same biosamples we infected mice modulating pneumonia. For that, adult C57BL/6 mice were rendered neutropenic by injecting cyclophosphamide subcutaneously 4 days before infection (150 mg/kg of body weight), 1 day before infection (100 mg/kg), and 1 day after infection (100 mg/kg). Mice were anesthetized with 2% isoflurane and orally instilled with biosample disluted in PBS. Briefly, nares were blocked, and mice aspirated 50 μL of the biosample into the lungs while being held vertically for 60 s. MIX was taken as a Cmax.
30 animals were used (n=10 per group) and were treated with different concentrations of tobramycin according to the results obtained by proposed method from 3 different biosamples.
(§2) Efficacy was evaluated by the decrease of PP count by 3log10 over 48 hours.

[5] = system: Primary Pathogens; experiment: Sensitivity of primary pathogens to antibiotics, standard serial microbroth-dilution method (Example 23); type: cell-based; conditions: for MIC: Pseudomonas aeruginosa
Source text: We used sputum from patients with different pulmonary infections. Pure bacterial culture of each microorganisms was obtained by routine microbiological methods, bacterial identification was done by MALDI-TOF analysis, microbial diversity of biosample was done by metagenomic analysis (16S RNA sequencing).
Primary pathogen was selected as a leading pathogen in each infection case, based on consultation with an independent doctors who have received a description of the clinical picture, microbiology and microbiology analyses. Sensitivity of PP to antibiotics was evaluated using a standard serial microbroth-dilution method.

[6] = system: PP in sputum biosamples; experiment: Presence of PP growth in wells with different tobramycin concentrations; type: cell-based; design: key: “+”—presence of bacterial growth, antibiotic is ineffective; “−”—absence of bacterial growth, antibiotic is effective
Procedure: Next, biosamples were plated to the wells of 48 well plate filled with Columbia +Pept Meat Agar supplemented with tobramycin taken at different concentrations (we have taken MIC as equal to Cmax) and presence of PP growth was evaluated in each well in 24 h of growth.

[7] = system: PP; experiment: Animals treated with amoxicillin regimens, decrease of PP count by 3log10 over 48 hours; type: in vivo; conditions: efficacy = decrease of PP count by 3log10 over 48 hours
Procedure: 25 animals were used (n=5 per group) and were treated with different concentrations of Amoxicillin according to the results obtained by proposed method from 3 different biosamples.
as §2

C[C@H](Cn1cnc2c(N)ncnc21)OCP(=O)(O)O [Group 7]
+++++: diversity of Gram positive non-sporeforming bacteria ([2]; compound at 0.5 ug/mL)
+++: diversity of Gram negative rods ([1]; compound at 0.5 ug/mL) | diversity of Gram positive sporeforming bacteria ([3]; compound at 0.5 ug/mL)

C[C@H](Cn1cnc2c(N)ncnc21)OCP(=O)(O)O [Group 8]
+++++: diversity of Gram positive non-sporeforming bacteria ([2]; compound at 100 ug/mL)
+++: diversity of Gram negative rods ([1]; compound at 100 ug/mL) | diversity of Gram positive sporeforming bacteria ([3]; compound at 100 ug/mL)

Nc1nc([O-])c2ncn(COCCO)c2n1.[Na+] [Group 11]
+++: diversity of Gram negative rods ([1]; compound at 0.5 ug/mL) | diversity of Gram positive sporeforming bacteria ([3]; compound at 0.5 ug/mL)
+++++: diversity of Gram positive non-sporeforming bacteria ([2]; compound at 0.5 ug/mL)

Nc1nc([O-])c2ncn(COCCO)c2n1.[Na+] [Group 12]
+++++: diversity of Gram positive non-sporeforming bacteria ([2]; compound at 100 ug/mL)
+++: diversity of Gram negative rods ([1]; compound at 100 ug/mL) | diversity of Gram positive sporeforming bacteria ([3]; compound at 100 ug/mL)

NC[C@H]1O[C@H](O[C@H]2[C@H](O)[C@@H](O[C@H]3O[C@H](CO)[C@@H](O)[C@H](N)[C@H]3O)[C@H](N)C[C@@H]2N)[C@H](N)C[C@@H]1O [Tobramycin]
2 mg/L: MIC ([5]; Biosample 1, P. aeruginosa)
−: Presence of bacterial growth in the wells ([6]; Biosample 1 (PP P. aeruginosa), 1/10 Cmax, 24 h) | Presence of bacterial growth in the wells ([6]; Biosample 1 (PP P. aeruginosa), Cmax × 2, 24 h) | Presence of bacterial growth in the wells ([6]; Biosample 1 (PP P. aeruginosa), Cmax × 10, 24 h) | Presence of bacterial growth in the wells ([6]; Biosample 1 (PP P. aeruginosa), Cmax, 24 h) | Presence of bacterial growth in the wells ([6]; Biosample 1 (PP P. aeruginosa), ¼ Cmax, 24 h) | Presence of bacterial growth in the wells ([6]; Biosample 1 (PP P. aeruginosa), ½ Cmax, 24 h) | Presence of bacterial growth in the wells ([6]; Biosample 2 (PP P. aeruginosa), Cmax × 2, 24 h) | Presence of bacterial growth in the wells ([6]; Biosample 2 (PP P. aeruginosa), Cmax × 10, 24 h) | Presence of bacterial growth in the wells ([6]; Biosample 2 (PP P. aeruginosa), Cmax, 24 h) | Presence of bacterial growth in the wells ([6]; Biosample 3 (PP P. aeruginosa), Cmax × 2, 24 h) | Presence of bacterial growth in the wells ([6]; Biosample 3 (PP P. aeruginosa), Cmax × 10, 24 h) | Presence of bacterial growth in the wells ([6]; Biosample 3 (PP P. aeruginosa), Cmax, 24 h) | Presence of bacterial growth in the wells ([6]; Biosample 3 (PP P. aeruginosa), ¼ Cmax, 24 h) | Presence of bacterial growth in the wells ([6]; Biosample 3 (PP P. aeruginosa), ½ Cmax, 24 h)
0/5: Number of animals to whom therapy was effective/number of animals per group ([4]; Group 1b, biosample #1, Cmax 1/100 (highest INEFFECTIVE)) | Number of animals to whom therapy was effective/number of animals per group ([4]; Group 2b, biosample #2, Cmax 1/10 (highest INEFFECTIVE)) | Number of animals to whom therapy was effective/number of animals per group ([4]; Group 3b, biosample #3, Cmax 1/10 (highest INEFFECTIVE)) | Number of animals to whom therapy was effective/number of animals per group ([7]; Group 2b, biosample #2, BID (highest INEFFECTIVE)) | Number of animals to whom therapy was effective/number of animals per group ([7]; Group 3b, biosample #3, QID (highest INEFFECTIVE))
I: Sensitivity (CLSI interpretation) ([5]; Biosample 2, P. aeruginosa) | Sensitivity (CLSI interpretation) ([5]; Biosample 3, P. aeruginosa)
+: Presence of bacterial growth in the wells ([6]; Biosample 1 (PP P. aeruginosa), 1/100 Cmax, 24 h) | Presence of bacterial growth in the wells ([6]; Biosample 2 (PP P. aeruginosa), 1/10 Cmax, 24 h) | Presence of bacterial growth in the wells ([6]; Biosample 2 (PP P. aeruginosa), 1/100 Cmax, 24 h) | Presence of bacterial growth in the wells ([6]; Biosample 2 (PP P. aeruginosa), ¼ Cmax, 24 h) | Presence of bacterial growth in the wells ([6]; Biosample 2 (PP P. aeruginosa), ½ Cmax, 24 h) | Presence of bacterial growth in the wells ([6]; Biosample 3 (PP P. aeruginosa), 1/10 Cmax, 24 h) | Presence of bacterial growth in the wells ([6]; Biosample 3 (PP P. aeruginosa), 1/100 Cmax, 24 h)
S: Sensitivity (CLSI interpretation) ([5]; Biosample 1, P. aeruginosa)
5/5: Number of animals to whom therapy was effective/number of animals per group ([4]; Group 1a, biosample #1, Cmax 1/10 (lowest EFFECTIVE)) | Number of animals to whom therapy was effective/number of animals per group ([4]; Group 2a, biosample #2, Cmax 1/1 (lowest EFFECTIVE)) | Number of animals to whom therapy was effective/number of animals per group ([4]; Group 3a, biosample #3, Cmax 1/4 (lowest EFFECTIVE)) | Number of animals to whom therapy was effective/number of animals per group ([7]; Group 1a, biosample #1, QID (lowest EFFECTIVE)) | Number of animals to whom therapy was effective/number of animals per group ([7]; Group 2a, biosample #2, TID (lowest EFFECTIVE)) | Number of animals to whom therapy was effective/number of animals per group ([7]; Group 3a, biosample #3, BID (lowest EFFECTIVE))
8 mg/L: MIC ([5]; Biosample 2, P. aeruginosa) | MIC ([5]; Biosample 3, P. aeruginosa)
